Test results from ChEMBL document CHEMBL3351443, “Development of 3-hydroxycinnamamide-based HDAC inhibitors with potent in vitro and in vivo anti-tumor activity” (Eur J Med Chem, 2015).

Assays:
Histone deacetylase = assay: Inhibition of HDAC in human HeLa cell extract using Boc-Lys (acetyl)-AMC as substrate incubated for 10 mins prior to substrate addition measured after 30 mins by fluorescence assay; assay type: protein assay
[1] = Antiproliferative activity against human U266 cells after 48 hrs by MTT assay; assay type: functional, cell-based; settings: U-266, 48 h
[2] = Antiproliferative activity against human U937 cells after 48 hrs by MTT assay; assay type: functional, cell-based; settings: U-937, 48 h
K562 = assay: Antiproliferative activity against human K562 cells after 48 hrs by MTT assay; assay type: functional, cell-based; settings: K562, 48 h
HEL = assay: Antiproliferative activity against human HEL cells after 48 hrs by MTT assay; assay type: functional, cell-based
[3] = Antiproliferative activity against human KG1 cells after 48 hrs by MTT assay; assay type: functional, cell-based; settings: KG-1, 48 h
[4] = Antiproliferative activity against human HL60 cells after 48 hrs by MTT assay; assay type: functional, cell-based; settings: HL-60, 48 h
MDA-MB-231 = assay: Antiproliferative activity against human MDA-MB-231 cells after 48 hrs by MTT assay; assay type: functional, cell-based; settings: MDA-MB-231, 48 h
[5] = Antiproliferative activity against human PC3 cells after 48 hrs by MTT assay; assay type: functional, cell-based; settings: PC-3, 48 h
MCF7 = assay: Antiproliferative activity against human MCF7 cells after 48 hrs by MTT assay; assay type: functional, cell-based; settings: MCF7, 48 h
[6] = Antiproliferative activity against human HCT116 cells after 48 hrs by MTT assay; assay type: functional, cell-based; settings: HCT-116, 48 h
A549 = assay: Antiproliferative activity against human A549 cells after 48 hrs by MTT assay; assay type: functional, cell-based; settings: A549, 48 h
Histone deacetylase 1 = Histone deacetylase 1 (Homo sapiens, UniProt Q13547); assay: Inhibition of HDAC1 (unknown origin)
Histone deacetylase 2 = Histone deacetylase 2 (Homo sapiens, UniProt Q92769); assay: Inhibition of HDAC2 (unknown origin)
Histone deacetylase 3 = Histone deacetylase 3 (Homo sapiens, UniProt O15379); assay: Inhibition of HDAC3 (unknown origin)
[7] = target: T1, Protein deacetylase HDAC6 (Homo sapiens, UniProt Q9UBN7); assay: Inhibition of HDAC6 (unknown origin)
T1 sequence (Q9UBN7 whole entry): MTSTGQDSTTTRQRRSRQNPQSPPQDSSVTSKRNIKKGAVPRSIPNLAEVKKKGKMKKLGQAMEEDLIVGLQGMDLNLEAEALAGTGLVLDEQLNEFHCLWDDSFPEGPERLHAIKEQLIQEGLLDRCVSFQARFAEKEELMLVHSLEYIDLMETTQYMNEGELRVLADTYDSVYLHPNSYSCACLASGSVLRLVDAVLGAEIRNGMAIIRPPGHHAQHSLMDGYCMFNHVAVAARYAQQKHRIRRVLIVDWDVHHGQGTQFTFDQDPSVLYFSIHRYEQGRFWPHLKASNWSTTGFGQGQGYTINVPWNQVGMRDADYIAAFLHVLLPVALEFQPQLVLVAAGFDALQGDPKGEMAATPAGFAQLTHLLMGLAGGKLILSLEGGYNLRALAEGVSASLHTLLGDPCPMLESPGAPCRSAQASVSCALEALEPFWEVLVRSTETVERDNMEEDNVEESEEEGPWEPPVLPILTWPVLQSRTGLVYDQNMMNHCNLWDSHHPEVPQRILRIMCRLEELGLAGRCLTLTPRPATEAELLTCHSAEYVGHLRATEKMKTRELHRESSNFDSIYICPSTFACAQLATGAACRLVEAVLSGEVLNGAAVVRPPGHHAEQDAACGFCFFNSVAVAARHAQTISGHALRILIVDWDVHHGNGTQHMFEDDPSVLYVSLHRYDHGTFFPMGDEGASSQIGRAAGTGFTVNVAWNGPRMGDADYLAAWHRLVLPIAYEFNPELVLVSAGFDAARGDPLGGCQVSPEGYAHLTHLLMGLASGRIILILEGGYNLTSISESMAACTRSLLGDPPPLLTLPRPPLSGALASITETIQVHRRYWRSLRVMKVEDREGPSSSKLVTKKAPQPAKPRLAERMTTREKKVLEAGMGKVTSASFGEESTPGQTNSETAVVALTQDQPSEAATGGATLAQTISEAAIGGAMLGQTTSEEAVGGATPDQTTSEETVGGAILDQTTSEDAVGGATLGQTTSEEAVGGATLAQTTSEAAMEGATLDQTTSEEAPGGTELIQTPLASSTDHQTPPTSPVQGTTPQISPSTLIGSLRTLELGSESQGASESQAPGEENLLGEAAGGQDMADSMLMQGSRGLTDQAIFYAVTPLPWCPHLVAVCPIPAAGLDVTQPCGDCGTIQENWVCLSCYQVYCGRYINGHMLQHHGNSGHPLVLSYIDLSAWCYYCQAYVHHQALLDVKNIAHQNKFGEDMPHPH

U-937 [8] = assay: Induction of apoptosis in human U937 cells assessed as early apoptotic cells at 1.5 uM after 24 hrs by annexin-V/propidium iodide staining-based flow cytometry (reference value: 3.81%); assay type: functional
U-937 [9] = assay: Induction of apoptosis in human U937 cells assessed as late apoptotic cells at 1.5 uM after 24 hrs by annexin-V/propidium iodide staining-based flow cytometry (reference value: 2.77%); assay type: functional
U-937 [10] = assay: Induction of apoptosis in human U937 cells assessed as dead cells at 1.5 uM after 24 hrs by annexin-V/propidium iodide staining-based flow cytometry (reference value: 0.95%); assay type: functional
U-937 [11] = assay: Induction of apoptosis in human U937 cells assessed as viable cells at 1.5 uM after 24 hrs by annexin-V/propidium iodide staining-based flow cytometry (reference value: 92.47%); assay type: functional
U-937 [12] = assay: Induction of apoptosis in human U937 cells assessed as apoptotic cells at 1.5 uM after 24 hrs by annexin-V/propidium iodide staining-based flow cytometry; assay type: functional
[13] = Antitumor activity against human U937 cells xenografted in athymic nude mouse assessed as tumor growth inhibition at 120 mg/kg/day, po after 16 days; assay type: functional; settings: U-937, 384 h, read-out: TGI
[14] = Antitumor activity against human U937 cells xenografted in athymic nude mouse at 120 mg/kg/day, po after 16 days relative to control; assay type: functional, U-937
Mus musculus [15] = assay: Toxicity in athymic nude mouse xenografted with human U937 cells assessed as weight loss at 120 mg/kg/day, po after 16 days; assay type: organism-based, U-937; parameters: route oral; settings: in vivo, 384 h
Mus musculus [16] = assay: Toxicity in athymic nude mouse xenografted with human U937 cells assessed as toxic sign in liver at 120 mg/kg/day, po after 16 days; assay type: organism-based, U-937; parameters: route oral; settings: in vivo, 384 h
Mus musculus [17] = assay: Toxicity in athymic nude mouse xenografted with human U937 cells assessed as toxic sign in spleen at 120 mg/kg/day, po after 16 days; assay type: organism-based, U-937; parameters: route oral; settings: in vivo, 384 h
Histone deacetylase 8 = target: T2, Histone deacetylase 8 (Homo sapiens, UniProt Q9BY41); assay: Inhibition of HDAC8 (unknown origin)
T2 sequence (Q9BY41 whole entry): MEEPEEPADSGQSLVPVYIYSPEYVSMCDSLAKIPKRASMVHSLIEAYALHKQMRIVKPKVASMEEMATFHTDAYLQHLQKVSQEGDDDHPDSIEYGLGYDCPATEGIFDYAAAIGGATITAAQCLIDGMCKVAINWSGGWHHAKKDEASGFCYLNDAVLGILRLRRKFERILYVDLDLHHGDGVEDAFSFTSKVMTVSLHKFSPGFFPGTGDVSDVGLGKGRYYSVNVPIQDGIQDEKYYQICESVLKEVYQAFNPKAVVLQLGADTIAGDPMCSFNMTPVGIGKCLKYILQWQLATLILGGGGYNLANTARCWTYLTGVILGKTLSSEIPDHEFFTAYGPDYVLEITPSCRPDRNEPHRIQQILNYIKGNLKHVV

Histone deacetylase 4 = Histone deacetylase 4 (Homo sapiens, UniProt P56524); assay: Inhibition of HDAC4 (unknown origin)
Histone deacetylase 11 = target: T3, Histone deacetylase 11 (Homo sapiens, UniProt Q96DB2); assay: Inhibition of HDAC11 (unknown origin)
T3 sequence (Q96DB2 whole entry): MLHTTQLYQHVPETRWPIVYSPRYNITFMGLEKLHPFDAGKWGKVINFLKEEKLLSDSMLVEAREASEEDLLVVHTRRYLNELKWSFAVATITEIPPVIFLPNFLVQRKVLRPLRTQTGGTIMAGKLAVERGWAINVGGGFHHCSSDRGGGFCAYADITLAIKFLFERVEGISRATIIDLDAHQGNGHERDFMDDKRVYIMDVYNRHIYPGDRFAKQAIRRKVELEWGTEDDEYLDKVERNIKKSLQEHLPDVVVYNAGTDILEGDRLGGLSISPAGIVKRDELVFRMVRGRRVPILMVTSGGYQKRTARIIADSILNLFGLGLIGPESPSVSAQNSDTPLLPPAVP

Sequence of Histone deacetylase 3 (O15379 whole entry): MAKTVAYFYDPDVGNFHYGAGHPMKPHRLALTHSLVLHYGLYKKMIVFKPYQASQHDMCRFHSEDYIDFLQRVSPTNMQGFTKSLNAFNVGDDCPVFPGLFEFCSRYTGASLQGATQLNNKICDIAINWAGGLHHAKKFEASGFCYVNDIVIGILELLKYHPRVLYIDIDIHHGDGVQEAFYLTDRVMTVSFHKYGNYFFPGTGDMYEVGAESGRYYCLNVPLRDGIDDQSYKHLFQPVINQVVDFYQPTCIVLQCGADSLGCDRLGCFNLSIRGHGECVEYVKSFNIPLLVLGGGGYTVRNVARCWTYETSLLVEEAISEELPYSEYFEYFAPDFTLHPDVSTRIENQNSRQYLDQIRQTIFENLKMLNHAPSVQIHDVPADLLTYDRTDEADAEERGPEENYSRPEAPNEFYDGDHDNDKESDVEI
Sequence of Histone deacetylase 2 (Q92769 whole entry): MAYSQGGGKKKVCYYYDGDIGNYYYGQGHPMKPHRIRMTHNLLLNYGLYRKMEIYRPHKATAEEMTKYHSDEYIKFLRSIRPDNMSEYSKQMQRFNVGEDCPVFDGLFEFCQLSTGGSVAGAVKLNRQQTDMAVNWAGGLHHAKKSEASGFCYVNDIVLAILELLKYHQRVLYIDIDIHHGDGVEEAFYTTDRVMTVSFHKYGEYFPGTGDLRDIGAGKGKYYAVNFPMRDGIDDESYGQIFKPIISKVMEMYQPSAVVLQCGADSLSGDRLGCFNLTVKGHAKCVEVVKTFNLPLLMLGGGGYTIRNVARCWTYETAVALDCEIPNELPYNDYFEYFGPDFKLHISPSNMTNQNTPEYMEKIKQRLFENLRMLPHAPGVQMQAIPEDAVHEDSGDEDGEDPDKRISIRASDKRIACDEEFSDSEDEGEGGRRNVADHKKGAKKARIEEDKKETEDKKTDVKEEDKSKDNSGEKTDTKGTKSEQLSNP
Sequence of Histone deacetylase 1 (Q13547 whole entry): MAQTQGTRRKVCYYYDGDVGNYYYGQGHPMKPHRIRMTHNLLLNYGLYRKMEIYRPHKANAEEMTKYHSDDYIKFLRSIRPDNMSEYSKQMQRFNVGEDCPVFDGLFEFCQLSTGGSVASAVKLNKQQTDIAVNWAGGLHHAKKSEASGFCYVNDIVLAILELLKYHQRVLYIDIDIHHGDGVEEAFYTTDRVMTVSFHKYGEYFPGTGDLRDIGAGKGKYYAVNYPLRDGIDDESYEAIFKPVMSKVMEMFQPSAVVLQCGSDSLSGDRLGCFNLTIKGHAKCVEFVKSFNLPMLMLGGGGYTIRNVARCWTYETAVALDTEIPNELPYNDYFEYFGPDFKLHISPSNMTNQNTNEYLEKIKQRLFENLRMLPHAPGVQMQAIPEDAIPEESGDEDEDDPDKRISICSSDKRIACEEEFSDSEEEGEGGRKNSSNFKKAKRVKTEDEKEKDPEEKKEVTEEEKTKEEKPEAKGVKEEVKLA
Sequence of Histone deacetylase 4 (P56524 whole entry): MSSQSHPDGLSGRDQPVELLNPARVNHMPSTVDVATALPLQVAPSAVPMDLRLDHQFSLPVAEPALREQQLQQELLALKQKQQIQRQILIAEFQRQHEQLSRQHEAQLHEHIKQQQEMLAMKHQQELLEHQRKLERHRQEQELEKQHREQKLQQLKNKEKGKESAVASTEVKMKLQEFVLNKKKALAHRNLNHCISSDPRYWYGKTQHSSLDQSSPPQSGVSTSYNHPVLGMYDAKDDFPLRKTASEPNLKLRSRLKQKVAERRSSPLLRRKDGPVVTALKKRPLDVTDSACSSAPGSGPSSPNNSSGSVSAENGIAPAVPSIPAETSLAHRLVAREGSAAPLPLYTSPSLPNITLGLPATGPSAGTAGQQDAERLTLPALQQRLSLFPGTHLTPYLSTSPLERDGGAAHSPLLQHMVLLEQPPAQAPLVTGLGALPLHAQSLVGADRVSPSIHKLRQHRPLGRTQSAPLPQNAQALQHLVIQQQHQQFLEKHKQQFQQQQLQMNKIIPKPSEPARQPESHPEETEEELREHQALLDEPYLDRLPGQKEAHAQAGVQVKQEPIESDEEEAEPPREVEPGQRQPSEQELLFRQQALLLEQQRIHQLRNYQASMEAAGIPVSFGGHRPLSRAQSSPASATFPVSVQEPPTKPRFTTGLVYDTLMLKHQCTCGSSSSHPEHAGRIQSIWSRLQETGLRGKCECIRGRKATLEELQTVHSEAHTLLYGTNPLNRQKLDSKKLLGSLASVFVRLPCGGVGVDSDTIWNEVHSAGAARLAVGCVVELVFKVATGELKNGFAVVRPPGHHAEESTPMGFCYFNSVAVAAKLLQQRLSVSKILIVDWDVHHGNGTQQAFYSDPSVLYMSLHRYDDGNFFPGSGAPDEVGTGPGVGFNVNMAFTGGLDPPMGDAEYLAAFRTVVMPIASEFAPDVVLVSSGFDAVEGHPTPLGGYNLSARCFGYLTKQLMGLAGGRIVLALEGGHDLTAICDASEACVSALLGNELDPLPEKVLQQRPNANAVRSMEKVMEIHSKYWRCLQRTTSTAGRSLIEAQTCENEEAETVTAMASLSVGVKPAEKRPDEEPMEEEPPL

Compound: O=C(/C=C/c1cccc(OC[C@H](Cc2c[nH]c3ccccc23)NC(=O)c2ccccc2)c1)NO
- IC50 (Histone deacetylase): 421.4 nM
- IC50 [1]: 1230 nM

Compound: O=C(/C=C/c1cccc(OC[C@H](Cc2c[nH]c3ccccc23)NC(=O)c2ccc(Cl)cc2)c1)NO
- IC50 [1]: 1740 nM

Compound: CC(C)(C)OC(=O)N[C@H](COc1cccc(/C=C/C(=O)NO)c1)Cc1c[nH]c2ccccc12
- IC50 (Histone deacetylase): 917.4 nM
- IC50 [1]: 4180 nM

Compound: CC(C)(C)OC(=O)NCC(=O)N[C@H](COc1cccc(/C=C/C(=O)NO)c1)Cc1c[nH]c2ccccc12
- IC50 (Histone deacetylase): 886.4 nM
- IC50 [1]: 8950 nM

Compound: CC(NC(=O)OC(C)(C)C)C(=O)N[C@H](COc1cccc(/C=C/C(=O)NO)c1)Cc1c[nH]c2ccccc12 (stereo partly specified)
- IC50 (Histone deacetylase): 861.5 nM
- IC50 [1]: 6560 nM

Compound: O=C(/C=C/c1cccc(OC[C@H](Cc2c[nH]c3ccccc23)NC(=O)Cc2ccccc2)c1)NO
- IC50 (Histone deacetylase): 447.7 nM
- IC50 [1]: 6570 nM

Compound: O=C(/C=C/c1cccc(OC[C@H](Cc2c[nH]c3ccccc23)NC(=O)CCc2ccccc2)c1)NO
- IC50 (Histone deacetylase): 464.5 nM
- IC50 [1]: 6170 nM

Compound: O=C(/C=C/c1cccc(OC[C@H](Cc2c[nH]c3ccccc23)NC(=O)CCCc2ccccc2)c1)NO
- IC50 (Histone deacetylase): 498.6 nM
- IC50 [1]: 3620 nM

Compound: O=C(/C=C/c1cccc(OC[C@H](Cc2c[nH]c3ccccc23)NC(=O)c2ccc(Br)cc2)c1)NO
- IC50 (Histone deacetylase): 692.4 nM
- IC50 [1]: 1390 nM

Compound: COc1ccc(C(=O)N[C@H](COc2cccc(/C=C/C(=O)NO)c2)Cc2c[nH]c3ccccc23)cc1
- IC50 (Histone deacetylase): 191.2 nM
- IC50 [1]: 410 nM
- IC50 [2]: 360 nM
- IC50 (K562): 3460 nM
- IC50 (HEL): 380 nM
- IC50 [3]: 1080 nM
- IC50 [4]: 3700 nM
- IC50 (MDA-MB-231): 970 nM
- IC50 [5]: 3880 nM
- IC50 (MCF7): 2490 nM
- IC50 [6]: 2310 nM
- IC50 (A549): 4500 nM
- IC50 (Histone deacetylase 1): 219 nM
- IC50 (Histone deacetylase 2): 865 nM
- IC50 (Histone deacetylase 3): 224 nM
- IC50 [7]: 93.8 nM
- Activity (U-937 [8]): 11.54%
- Activity (U-937 [9]): 23.99%
- Activity (U-937 [10]): 6.92%
- viability at 1.5 µM (U-937 [11]; Homo sapiens, U-937, 24 h, read-out: Activity): 57.5%
- Activity (U-937 [12]): 35.53%
- inhibition in vivo at 120 mg/kg/day [13]: 42.7%
- T/C [14]: 56.4%
- Activity (Mus musculus [15]): Non-toxic
- Activity (Mus musculus [16]): Non-toxic
- Activity (Mus musculus [17]): Non-toxic

Compound: Cc1ccc(C(=O)N[C@H](COc2cccc(/C=C/C(=O)NO)c2)Cc2c[nH]c3ccccc23)cc1
- IC50 (Histone deacetylase): 218.7 nM
- IC50 [1]: 390 nM

Compound: O=C(/C=C/c1cccc(OC[C@H](Cc2c[nH]c3ccccc23)NC(=O)c2ccccc2Cl)c1)NO
- IC50 (Histone deacetylase): 81.9 nM
- IC50 [1]: 740 nM

Compound: O=C(/C=C/c1cccc(OC[C@H](Cc2c[nH]c3ccccc23)NC(=O)c2cccc(Cl)c2)c1)NO
- IC50 (Histone deacetylase): 357.9 nM
- IC50 [1]: 3080 nM

Compound: O=C(/C=C/c1cccc(OC[C@H](Cc2c[nH]c3ccccc23)NC(=O)c2ccc(Cl)cc2Cl)c1)NO
- IC50 (Histone deacetylase): 258.9 nM
- IC50 [1]: 2500 nM

Compound: O=C(/C=C/c1cccc(OC[C@H](Cc2c[nH]c3ccccc23)NC(=O)c2cc(Cl)cc(Cl)c2)c1)NO
- IC50 (Histone deacetylase): 779 nM
- IC50 [1]: 3030 nM

Compound: COc1cccc(C(=O)N[C@H](COc2cccc(/C=C/C(=O)NO)c2)Cc2c[nH]c3ccccc23)c1
- IC50 (Histone deacetylase): 67.4 nM
- IC50 [1]: 3090 nM

Compound: COc1ccccc1C(=O)N[C@H](COc1cccc(/C=C/C(=O)NO)c1)Cc1c[nH]c2ccccc12
- IC50 (Histone deacetylase): 38.5 nM
- IC50 [1]: 1430 nM
- IC50 (Histone deacetylase 1): 33.2 nM
- IC50 (Histone deacetylase 2): 64.8 nM
- IC50 (Histone deacetylase 3): 28.7 nM
- IC50 [7]: 23.9 nM
- IC50 (Histone deacetylase 8): 87.4 nM
- IC50 (Histone deacetylase 4): 440 nM
- IC50 (Histone deacetylase 11): 52.7 nM

Compound: O=C(CCCCCCC(=O)Nc1ccccc1)NO [VORINOSTAT]
- IC50 [5]: 3570 nM
- Activity (U-937 [8]): 6.65%
- Activity (U-937 [9]): 14.57%
- Activity (U-937 [10]): 6.16%
- Activity (U-937 [11]): 72.62%
- Activity (U-937 [12]): 21.22%
- T/C [14]: 71.7%
